# Reference: patent US20230190787A1, “SYSTEM AND METHOD FOR TREATING CARDIAC TOXICITY VIA GUT MICROBIOTA” (priority 2022, published 2023)
# How the values were obtained:
# Format in all cases: in vivo, Wistar albino rats
# [1] = tested on: Dox induced cardiac toxicity/remodeling; assay: Blood analysis: serum biochemical levels (auto analyzer/ELISA kits) in doxorubicin induced cardiac toxicity/remodelling rats
# Text: Zinc Quantification, rat high sensitivity C-Reactive Protein, Fibrinogen invitro, IL-6, IL-10, Renin, Ang II, and CKMB Enzyme linked Immunosorbent Assay (ELISA) rat kits are procured from Abcam, Cambridge, United Kingdom.
# Sufficient experimental animals Wistar albino rats approximately average weight of 170±20 g are obtained. The protocol is approved by Institutional Animal Ethical Committee, all animals are acclimatized for 7 days standard laboratory condition of 12-hr light/dark cycle, maintained at temperature of 22±2° C. with relative humidity of 50±5% in department of Biochemistry, Faculty of Science.
# (§1) All the animals are randomly divided into 4 groups with six animals in each: 1) Normal control (NC), fed with standard semi purified diet along with normal drinking water, 2) Zam control (ZC) fed with standard semi purified diet along with Zam water p.o at libitum, 3) Doxorubicin or Dox control (DC), animals are injected with Dox (1 mg/kg bw) i.p. on first day of protocol fed with standard semi purified diet along with normal drinking water and 4) Dox+Zam (DZ) group injected with Dox (1 mg/kg bw) i.p. on first day of protocol, and treated with Zam water p.o at libitum, for 28 days. All the animals are on semi purified diet throughout the study period. Body weight of rats are recorded weekly and consumption of food and water is measured daily basis.
# (§2) Physiological and behavioural changes are monitored in experimental rats for entire period of protocol. The protocol is terminated on 29th day, animals are sedated with diethyl ether for further process of organ harvesting and blood collection. Abdominal artery, punctured and blood is collected in centrifugal tubes approximately 3 ml/100 g body weight, allowed to clot at laboratory temperature for 30 minutes, centrifuged at 4° C. for 15 minutes at 4500 rpm. The supernatant serum, transferred to 1.5 ml tubes and kept at −80° C. for further analysis. Harvested heart and kidneys are weight, preserved in 10% phosphate buffered formaldehyde for histopathological analysis.
# The serum biochemical levels of Zinc, Fibrinogen, Renin, IL-10,11-6, CRP, Ang II, and CKMB are analyzed by standard auto analyzer kits-Zinc quantification kit, Rat Fibrinogen ELISA kit, Rat Renin ELISA kit, IL-10 ELISA kit, I1-6 ELISA kit, CRP ELISA kit, Ang II ELISA kit, and CKMB ELISA kit from Abcam Cambridge, United Kingdom.
# Gut microbiota = Gut microbiota analysis: 16S metagenomic analysis of stool DNA; settings: DC group: Dox 1 mg/kg i.p., normal drinking water
# Description: All the animals are randomly divided into 4 groups with six animals in each: 1) Normal control (NC), fed with standard semi purified diet along with normal drinking water, 2) Zam control (ZC) fed with standard semi purified diet along with Zam water p.o at libitum, 3) Doxorubicin or Dox control (DC), animals are injected with Dox (1 mg/kg bw) i.p. on first day of protocol fed with standard semi purified diet along with normal drinking water and 4) Dox+Zam (DZ) group injected with Dox (1 mg/kg bw) i.p. on first day of protocol, and treated with Zam water p.o at libitum, for 28 days. All the animals are on semi purified diet throughout the study period. Body weight of rats are recorded weekly and consumption of food and water is measured daily basis. Stool samples of rats are used to isolate the DNA by […] kit as per manufacturer's instructions. Briefly 250-300 mg of stool samples collected from lower intestine, in 2 ml tube weighted and thawed on ice. ASL buffer (1.5 ml) is added, vortexed for 3 minutes followed by incubation at 80° C. for 15 minutes. The incubated tubes are tapped every four minute and centrifuge at 14000 rpm for 15 minutes at room temperature. EX tablet is added to 1.5-2.0 ml of supernatant, followed by centrifugation for 5 minutes at 15000 rpm. The procedure continued with the addition of proteinase K (15 μl) and AL buffer, incubated for 10 minutes at 70° C. Approximately 300 μl of absolute alcohol or ethanol is added, centrifuged for 1 minute at 12000 rpm with addition of 500 μl of AW1 buffer to column above and centrifuge at 14000 rpm for 1 minute. The filtrate in collection tube is discarded, finally DNA is eluted and is evaluated on 1% agarose gel. The isolated sample of DNA is forwarded for 16S metagenomic analysis.
# heart = assay: Histopathological analysis of heart (H&E); settings: DC group: Dox 1 mg/kg i.p., normal drinking water
# Description: as §1
# as §2, with “Harvested heart and kidneys are weight, preserved in 10% phosphate buffered formaldehyde for histopathological analysis.” left out
# kidneys = assay: Histopathological analysis of kidney (H&E); settings: DC group: Dox 1 mg/kg i.p., normal drinking water
# Description: as §1
# as §2, with “Harvested heart and kidneys are weight, preserved in 10% phosphate buffered formaldehyde for histopathological analysis.” left out
# [2] = DC group: Dox 1 mg/kg i.p., normal drinking water
smiles,measurement,setting,value
COc1cccc2c1C(=O)c1c(O)c3c(c(O)c1C2=O)C[C@@](O)(C(=O)CO)C[C@@H]3O[C@H]1C[C@H](N)[C@H](O)[C@H](C)O1 [Doxorubicin],Plasma CRP level,"[1]; DC group: Dox 1 mg/kg bw i.p. day 1, normal drinking water",13.40 ± 2.66 mg/dL
same,serum Zinc level,"[1]; DC group: Dox 1 mg/kg bw i.p. day 1, normal drinking water, day 29",0.55 ± 0.12 µg/mL
same,Ang II level,[1]; [2],16.00 ± 2.26 nmol/mL/min
same,CKMB level,[1]; [2],121.8±3.12 U/L
same,Fibrinogen concentration,[1]; [2],4.37±0.74
same,IL-6,[1]; [2],3.36±1.32
same,plasma renin level,[1]; [2],1.02 ± 0.38 ng/mL/h
same,IL-10,[1]; DC group: Dox single dose 1 mg/kg body weight,3.73 ± 0.50 pg/mL
same,Firmicutes population,Gut microbiota,33%
same,abundance of Bacteroidetes,Gut microbiota,34%
same,abundance of Muribaculaceae,Gut microbiota,26%
same,abundance of Proteobacteria,Gut microbiota,17%
same,abundance of Romboutsia,Gut microbiota,2%
same,histopathological evaluation of cardiac tissue,heart,"focal areas of myocardial cell degeneration with increased intracellular spaces, high fat deposits, inflammatory cell infiltration and disrupted tissue orientation"
same,histopathology of kidneys,kidneys,"severe pathological lesions with tubular degeneration, tubular cast and tubular necrosis with eosinophilic infiltration"
